Publication PMC9938908, “Unraveling topoisomerase IA gate dynamics in presence of PPEF and its preclinical evaluation against multidrug-resistant pathogens” (Communications Biology, 2023)

Assays:
Type in all cases: biochemical
[1] = target: T1, E. coli topoisomerase III (EcTopoIII) (Escherichia coli, UniProt P14294); assay: DNA relaxation assay with pHOT-1 plasmid, agarose gel
T1 construct: gene topB; N-terminal His-tag, pET28a(+), 1962 bp, 73 kDa

[2] = target: T2, S. aureus topoisomerase IA (SaTopoIA) (Staphylococcus aureus, UniProt Q5HGI2); assay: DNA relaxation assay with pHOT-1 plasmid; also ssDNA religation and plasmid cleavage assays
T2 construct: gene topA; N-terminal His-tag, pET28a(+), 2070 bp, 79 kDa
T2 sequence (Q5HGI2 1-689): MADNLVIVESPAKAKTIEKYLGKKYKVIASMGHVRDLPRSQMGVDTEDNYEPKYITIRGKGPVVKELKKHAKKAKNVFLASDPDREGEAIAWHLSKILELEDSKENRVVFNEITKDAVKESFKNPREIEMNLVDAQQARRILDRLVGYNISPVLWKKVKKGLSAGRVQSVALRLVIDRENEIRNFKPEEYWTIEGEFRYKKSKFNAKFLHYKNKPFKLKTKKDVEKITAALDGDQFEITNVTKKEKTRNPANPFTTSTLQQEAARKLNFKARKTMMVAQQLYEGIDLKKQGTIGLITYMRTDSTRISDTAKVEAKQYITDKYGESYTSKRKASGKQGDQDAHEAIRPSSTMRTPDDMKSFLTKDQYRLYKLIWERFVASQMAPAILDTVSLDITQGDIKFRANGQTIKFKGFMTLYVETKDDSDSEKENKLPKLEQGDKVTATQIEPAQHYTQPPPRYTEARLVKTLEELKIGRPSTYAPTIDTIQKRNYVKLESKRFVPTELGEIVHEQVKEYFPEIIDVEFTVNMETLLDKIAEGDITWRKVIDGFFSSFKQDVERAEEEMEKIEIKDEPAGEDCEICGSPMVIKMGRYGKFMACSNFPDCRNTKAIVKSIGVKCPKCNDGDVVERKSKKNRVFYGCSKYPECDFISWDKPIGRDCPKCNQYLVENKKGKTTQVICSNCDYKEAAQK

[3] = target: T3, A. baumannii topoisomerase IA (AbTopoIA) (Acinetobacter baumannii, UniProt A0ABX6CBM5); assay: DNA relaxation assay with pHOT-1 plasmid, agarose gel
T3 construct: gene topA; N-terminal His-tag, pET28a(+), 2637 bp, 98 kDa
T3 sequence (A0ABX6CBM5 1-878): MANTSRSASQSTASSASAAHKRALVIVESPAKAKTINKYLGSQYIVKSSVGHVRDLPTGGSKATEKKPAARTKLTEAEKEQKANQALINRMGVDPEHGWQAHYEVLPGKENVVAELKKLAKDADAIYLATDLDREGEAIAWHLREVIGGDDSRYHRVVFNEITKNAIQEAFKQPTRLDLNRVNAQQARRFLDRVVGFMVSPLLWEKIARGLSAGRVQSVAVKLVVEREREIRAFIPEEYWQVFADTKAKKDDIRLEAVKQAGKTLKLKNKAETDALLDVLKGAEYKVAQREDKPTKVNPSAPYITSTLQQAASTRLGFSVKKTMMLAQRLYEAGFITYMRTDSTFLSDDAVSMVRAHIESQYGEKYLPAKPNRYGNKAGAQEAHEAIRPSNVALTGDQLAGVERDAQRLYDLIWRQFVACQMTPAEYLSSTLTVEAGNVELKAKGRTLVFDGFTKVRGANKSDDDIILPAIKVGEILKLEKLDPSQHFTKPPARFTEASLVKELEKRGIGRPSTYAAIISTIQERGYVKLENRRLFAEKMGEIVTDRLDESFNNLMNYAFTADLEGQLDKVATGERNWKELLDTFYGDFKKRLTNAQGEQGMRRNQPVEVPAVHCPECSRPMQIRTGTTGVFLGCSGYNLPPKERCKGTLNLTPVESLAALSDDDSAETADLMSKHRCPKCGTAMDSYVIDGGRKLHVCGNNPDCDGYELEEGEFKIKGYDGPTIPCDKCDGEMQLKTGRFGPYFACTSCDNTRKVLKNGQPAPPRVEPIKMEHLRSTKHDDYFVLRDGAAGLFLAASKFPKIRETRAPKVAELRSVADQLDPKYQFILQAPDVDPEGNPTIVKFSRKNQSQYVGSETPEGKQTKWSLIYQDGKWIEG

[4] = target: T4, E. coli topoisomerase IA (EcTopoIA) (Escherichia coli, UniProt P06612); assay: as above
T4 construct: gene topA; expressed in pET28a(+), purified
T4 sequence (P06612 whole entry): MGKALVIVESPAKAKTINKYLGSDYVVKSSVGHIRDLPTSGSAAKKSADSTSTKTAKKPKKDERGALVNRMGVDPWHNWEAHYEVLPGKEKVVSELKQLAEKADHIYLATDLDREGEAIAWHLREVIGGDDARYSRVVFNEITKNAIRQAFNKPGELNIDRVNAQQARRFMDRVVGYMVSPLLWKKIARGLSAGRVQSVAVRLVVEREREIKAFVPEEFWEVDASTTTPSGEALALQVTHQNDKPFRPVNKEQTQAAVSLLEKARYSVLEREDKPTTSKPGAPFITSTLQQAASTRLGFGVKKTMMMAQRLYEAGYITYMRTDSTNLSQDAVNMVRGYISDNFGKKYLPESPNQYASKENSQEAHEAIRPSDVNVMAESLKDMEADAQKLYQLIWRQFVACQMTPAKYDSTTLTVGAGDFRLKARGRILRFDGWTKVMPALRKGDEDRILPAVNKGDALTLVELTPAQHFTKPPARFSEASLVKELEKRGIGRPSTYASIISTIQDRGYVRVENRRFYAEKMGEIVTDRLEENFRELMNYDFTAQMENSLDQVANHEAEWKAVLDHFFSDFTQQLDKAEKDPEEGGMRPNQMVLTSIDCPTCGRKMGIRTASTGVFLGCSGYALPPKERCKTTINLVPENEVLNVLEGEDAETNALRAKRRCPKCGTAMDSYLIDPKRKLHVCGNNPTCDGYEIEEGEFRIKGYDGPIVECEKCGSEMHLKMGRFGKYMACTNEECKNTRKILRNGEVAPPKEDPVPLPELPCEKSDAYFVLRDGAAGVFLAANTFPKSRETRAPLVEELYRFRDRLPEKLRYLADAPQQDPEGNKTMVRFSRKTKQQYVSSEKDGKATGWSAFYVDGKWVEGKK

T1 sequence (P14294 whole entry): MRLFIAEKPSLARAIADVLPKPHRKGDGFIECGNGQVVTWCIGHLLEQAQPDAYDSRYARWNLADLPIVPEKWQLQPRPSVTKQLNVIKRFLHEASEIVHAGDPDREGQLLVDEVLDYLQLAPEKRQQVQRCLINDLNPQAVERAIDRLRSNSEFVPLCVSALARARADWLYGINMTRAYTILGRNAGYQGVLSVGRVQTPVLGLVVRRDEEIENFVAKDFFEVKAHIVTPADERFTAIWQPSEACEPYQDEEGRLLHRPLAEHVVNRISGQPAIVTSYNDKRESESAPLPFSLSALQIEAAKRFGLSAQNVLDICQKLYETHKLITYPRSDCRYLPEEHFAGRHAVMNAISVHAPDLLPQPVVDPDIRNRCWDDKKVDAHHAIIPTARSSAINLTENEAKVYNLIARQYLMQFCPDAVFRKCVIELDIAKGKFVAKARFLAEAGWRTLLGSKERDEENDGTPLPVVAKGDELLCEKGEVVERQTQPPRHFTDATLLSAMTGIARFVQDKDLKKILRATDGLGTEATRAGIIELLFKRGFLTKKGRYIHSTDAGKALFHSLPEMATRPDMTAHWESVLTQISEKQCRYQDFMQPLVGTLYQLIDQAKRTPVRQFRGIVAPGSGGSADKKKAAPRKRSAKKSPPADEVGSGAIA

CCCCN1CCN(c2ccc3[nH]c(-c4ccc5[nH]c(-c6ccc(OC)c(OC)c6)nc5c4)nc3c2)CC1 [BPVF, 5-(4-butylpiperazin-1-yl)-2′-(3,4-dimethoxyphenyl)-1H,1′H-2,5′ bibenzo[d]imidazole]
IC50 [1]: 1.96 µM
IC50 [2]: 41.4 µM

CCCN1CCN(c2ccc3nc(-c4ccc5nc(-c6ccc(OCC)cc6)[nH]c5c4)[nH]c3c2)CC1 [PPEF, 2′-(4-ethoxyphenyl)-5-(4-propylpiperazin-1-yl)-1H,1′H-2,5′-bibenzo(d)imidazole]
IC50 [3]: 9.48 µM
IC50 [1]: 1.58 µM
IC50 [2]: 15.5 µM
IC50 [4]: 2.71 µM
